Test system: dsDNA
Source text: Intercalation properties of EDOT-ND-Os were further studied by competitive displacement assay.

## N[3-(imidazol-1-yl)propyl]-N′-[8-((2,3-dihydrothieno[3,4-b][1,4]dioxin-3-yl)methoxy)-3,6-dioxaoctyl]-1,4,5,8-naphthalenetetracarboxydiimide complex with Os(bpy)2Cl2 [EDOT-ND-Os]
  binding constant: 8×10^4
